In patent US20240067932A1, “METHODS AND COMPOSITIONS FOR GENERATING HEMOGENIC ENDOTHELIAL CELLS FROM PLURIPOTENT STEM CELLS” (Trailhead Biosystems Inc., priority 2022, published 2024):

Experiments:
Assay type in all cases: cell-based, human
[1] = tested on: early mesoderm progenitors; test: 8-factor HD-DoE experiments optimized for maximum GATA2 expression (qPCR, partial least squares models)
[2] = tested on: early mesoderm progenitors; test: as above; conditions: first model, FIG. 2; factors Forskolin, VEGF, FGF2, Albumax, SUN1162, Hydrocortisone, SB341542, Resveratrol; 3 days after stage 1
From the text: The early mesoderm progenitors were used for further differentiation along the endothelial lineage using a High-Dimensional Design of Experiments (HD-DoE) approach to simultaneously test multiple process inputs (e.g., small molecule agonists or antagonists) on output responses, such as gene expression. Based on predicted conditions that maximize expression of hemogenic endothelial enriched genes such as CD31, CD34, CD143, CD309, GATA2, Fill and RUNX1, vWF, a complex recipe was developed for generating differentiated hemogenic endothelial cells from the early mesoderm progenitors, composed of 8 agents as shown below in Table 1:
First, undifferentiated iPSC were grown for 48 h in CDM2 media containing 6 uM CHIR99021 (referred to herein as stage 1). Then stage 2 media was engineered. The basis of this was an 8-factor HD-DoE experiment with focus on differentiation of cells toward the hemogenic endothelial lineage for an additional 3 days after termination of stage 1 treatment. To test the effectors, 48 different combinations of effectors generated using Design-of-Experiments compression through D-optimality were robotically prepared. The effector combinations were prepared in a basal media and were subsequently added to the cells, which were then allowed to differentiate. Three days later, RNA extraction was performed, and gene expression was obtained using quantitative PCR analysis. The data were normalized and modeled using partial least squares regression analysis to the effector design, resulting in the generation of gene-specific models, which after model tuning for maximal Q2 predictive power, provided explanation of the effectors ability to control the expression of individual genes, combinatorically, and individually. Solutions within the tested space could then be explored to address desirability. For stage 2, conditions were created inducing the expression of GATA2, a transcription factor identified as a master regulator of hematopoiesis. GATA2 promotes the generation of HECs and facilitates endothelial-to-hematopoietic transition (EHT). GATA2 also suppresses cardiac differentiation at the mesoderm stage, directing cells to a hematopoietic fate. Optimizing for maximal expression of GATA2 led to a robust solution. […] In this model, high levels of KDR, important receptor for VEGF signaling, were observed. […] This model was derived from initial testing of eight factors including: Forskolin, VEGF, FGF2, Albumax, SUN1162, Hydrocortisone, SB341542, and Resveratrol. […] Factors with low contribution were excluded.

[3] = tested on: early mesoderm progenitors; test: Factor criticality / dynamic profile analysis of gene expression on removal of a finalized effector; parameters: expression level of GATA2 / expression level of TAL1 / expression level of CD44 / expression level of KDR / expression level of CD34 / expression level of CD31: unit not given here
[4] = second model, FIG. 3, factors CHIR, VEGF, FGF2, TTNBP, AGN194310, Y27632, Thymosin-β4, heparin
[5] = model FIG. 7, named factor removed, others kept
[6] = model FIG. 9, named factor removed
[7] = model FIG. 11, named factor removed
[8] = model FIG. 9A, before addition of SANT1
[9] = model FIG. 9A, with addition of SANT1

SMILES: CCc1ccc(C2=CC(C)(C)Sc3ccc(C#Cc4ccc(C(=O)O)cc4)cc32)cc1 [AGN194310]
- factor contribution (maximum expression of GATA2) [1, 4]: relatively low factor contribution

SMILES: Cc1c[nH]c(-c2cnc(NCCNc3ccc(C#N)cn3)nc2-c2ccc(Cl)cc2Cl)n1 [CHIR]
- factor contribution (maximum expression of GATA2) [1, 4]: relatively low factor contribution

SMILES: C=C[C@@]1(C)CC(=O)[C@]2(O)[C@@]3(C)[C@@H](O)CCC(C)(C)[C@@H]3[C@H](O)[C@H](OC(C)=O)[C@@]2(C)O1 [Forskolin, reference compound]
- factor contribution (maximum expression of GATA2) [2]: 27
- expression level of GATA2 ([3]; model FIG. 7 (VEGF, Forskolin, FGF2), factor present): 583
- expression level of CD34 ([3]; model FIG. 7, factor present): 2350
- expression level of CD44 ([3]; model FIG. 7, factor present): 578
- expression level of FLI1 (Fill [sic]) ([3]; model FIG. 7, factor present): 3971
- expression level of KDR ([3]; model FIG. 7, factor present): 33751
- expression level of TAL1 ([3]; model FIG. 7, factor present): 370
- expression level of CD34 [3, 5]: 2240
- expression level of CD44 [3, 5]: 540
- expression level of FLI1 (Fill [sic]) [3, 5]: 3740
- expression level of GATA2 [3, 5]: 373
- expression level of KDR [3, 5]: 32839
- expression level of TAL1 [3, 5]: 318

SMILES: O=C1O[C@H]([C@@H](O)CO)C(O)=C1O [L-ascorbic acid, reference compound]
- effect on expression of hemogenic endothelial genes analyzed (in words) ([3]; model FIG. 10): increased expression of crucial genes
- factor contribution (maximum expression of GATA2) ([1]; fourth model, FIG. 5, factors VEGF, FGF2, Sphingosine 1 phosphate, V11298, Pyrintegrin, Erythropoietin, L-ascorbic acid, XAV939): 5

SMILES: c1ccc2c(Oc3nc(Nc4ccc(N5CCOCC5)cc4)c4ncn(C5CCCCC5)c4n3)cccc2c1 [Purmorphamine, reference compound]
- expression level of GATA2 ([3]; model FIG. 9 (Purmorphamine, VEGF, B-27 kept), factor present): 275
- expression level of CD34 ([3]; model FIG. 9, factor present): 3230
- expression level of FLI1 (Fill [sic]) ([3]; model FIG. 9, factor present): 3571
- expression level of KDR ([3]; model FIG. 9, factor present): 13612
- expression level of TAL1 ([3]; model FIG. 9, factor present): 1008
- expression level of CD34 [3, 6]: 2369
- expression level of FLI1 (Fill [sic]) [3, 6]: 2324
- expression level of GATA2 [3, 6]: 105
- expression level of KDR [3, 6]: 7614
- expression level of TAL1 [3, 6]: 428
- factor contribution (maximum expression of GATA2) ([1]; third model, FIG. 4, factors YHHU, DBZ, Purmorphamine, SANT1, LPA, Yodal, VEGF, B-27): 20

SMILES: CC1=C(/C=C/C(C)=C/C=C/C(C)=C/C(=O)O)C(C)(C)CCC1 [Retinoic Acid, Retinoic acid, reference compound]
- expression level of GATA2 ([3]; model FIG. 11 (Retinoic Acid, BMP4, VEGF), factor present): 519
- expression level of CD31 ([3]; model FIG. 11, factor present): 768
- expression level of CD34 ([3]; model FIG. 11, factor present): 3971
- expression level of FLI1 (Fill [sic]) ([3]; model FIG. 11, factor present): 3250
- expression level of TAL1 ([3]; model FIG. 11, factor present): 490
- expression level of CD31 [3, 7]: 486
- expression level of CD34 [3, 7]: 2902
- expression level of FLI1 (Fill [sic]) [3, 7]: 2936
- expression level of GATA2 [3, 7]: 281
- expression level of TAL1 [3, 7]: 235
- factor contribution (maximum expression of GATA2) ([1]; fifth model, FIG. 6, factors VPA, SCF, BMP4, EFG, FLT3L, Arginine, Retinoic Acid, VEGF): 22

SMILES: Cc1nn(-c2ccccc2)c(C)c1/C=N/N1CCN(Cc2ccccc2)CC1 [SANT1, reference compound]
- effect on expression of genes of interest (in words) ([3]; model FIG. 9): decreased levels of all genes of interest
- expression level of CD34 [3, 8]: 3159
- expression level of KDR [3, 8]: 13469
- expression level of TAL1 [3, 8]: 1010
- expression level of CD34 [3, 9]: 1995
- expression level of KDR [3, 9]: 12504
- expression level of TAL1 [3, 9]: 498
